pIC50: −log10 of the molar value. Read-outs that look alike come from different tables or passages of the source.
Experiments:
[1] = tested on: Secretion of IL10 by OCI-LY3 ABC-DLBCL cells; assay: Human IL10 Mesoscale assay (OCI-LY3); format: cell-based; details: read-out: Human IL10 Mesoscale assay (OCI-LY3)
Method: (§1) NFKB signaling regulates the secretion of multiple cytokines, including IL6 and IL10. Secretion of the cytokines IL6 and IL10 by TMD8 or OCI-LY3 ABC-DLBCL cells was measured using a mesoscale assay.
(§2) Cell passage number should not exceed 30. Cells should be kept between 0.5-2.5 million cells per mL during culturing and cells should be supplemented every 2-3 days with fresh 50 µM beta-mercaptoenthanol. No beta-mercaptoethanol was used during the mesoscale assay.
(§3) DMSO control wells were used to determine the maximum signal (High Control (HC)). […] Compounds and cells were incubated for 24 h at 37° C. and 5% CO2 (assay volume is 150 μL). After 24 h of incubation 50 μL of the supernatant was transferred to a MSD plate (V-Plex Proinflammation Panel 1 (human) kit, Mesoscale (MSD)) and incubated for 2 h with vigorous shaking (600 rpm) at room temperature. Following incubation, plates were washed 3× with PBS+0.05% Tween-20 and 25 μL detection antibody solution (IL6 & IL10 antibodies in diluent 3 (MSD)) was added per well followed by 2 h of incubation with vigorous shaking (600 rpm) at room temperature. After 3× washes with PBS+0.05% Tween-20, plates were incubated with 150 μL 2× Read Buffer T and read on SECTOR imager.

[2] = tested on: Secretion of IL6 by OCI-LY3 ABC-DLBCL cells; assay: Human IL6 Mesoscale assay (OCI-LY3); format: cell-based; details: read-out: Human IL6 Mesoscale assay (OCI-LY3)
Method: as §1, §2, §3

[3] = biological target: T1, full-length MALT1 protein (Strep-MALT1(1-824)-His) (Homo sapiens, UniProt Q9UDY8); assay: biochemical;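 also: fluorogenic LRSR-AMC substrate cleavage by MALT1, 50 min compound preincubation then 4 h reaction at RT, 11-point dilution from 30 µM, scaled between enzyme-free and untreated enzyme controls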
T1 sequence (Q9UDY8 1-824): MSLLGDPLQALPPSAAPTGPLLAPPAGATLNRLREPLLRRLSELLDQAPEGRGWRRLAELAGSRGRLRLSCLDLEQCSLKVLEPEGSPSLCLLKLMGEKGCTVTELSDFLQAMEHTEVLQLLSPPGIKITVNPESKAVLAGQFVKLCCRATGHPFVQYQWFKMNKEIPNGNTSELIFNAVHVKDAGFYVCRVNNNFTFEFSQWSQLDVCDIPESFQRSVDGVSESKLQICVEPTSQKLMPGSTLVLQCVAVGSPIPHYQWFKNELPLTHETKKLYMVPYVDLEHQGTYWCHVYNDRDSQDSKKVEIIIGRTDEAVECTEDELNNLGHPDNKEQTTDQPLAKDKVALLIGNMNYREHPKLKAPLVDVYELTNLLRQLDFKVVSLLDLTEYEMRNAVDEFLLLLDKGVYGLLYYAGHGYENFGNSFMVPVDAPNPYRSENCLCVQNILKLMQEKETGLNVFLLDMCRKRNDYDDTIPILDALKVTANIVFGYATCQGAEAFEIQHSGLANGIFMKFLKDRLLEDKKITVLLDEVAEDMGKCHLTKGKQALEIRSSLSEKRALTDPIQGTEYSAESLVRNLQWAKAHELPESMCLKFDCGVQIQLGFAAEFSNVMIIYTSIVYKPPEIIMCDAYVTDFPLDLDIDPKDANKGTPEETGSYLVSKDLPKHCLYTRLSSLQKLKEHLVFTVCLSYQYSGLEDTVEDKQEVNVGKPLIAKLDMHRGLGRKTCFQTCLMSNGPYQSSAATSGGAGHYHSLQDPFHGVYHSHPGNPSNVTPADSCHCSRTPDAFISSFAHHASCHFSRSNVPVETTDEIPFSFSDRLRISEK

[4] = OCI-LY3 cells, 24 h incubation, supernatant, MSD V-Plex

Structure (SMILES)	pIC50 ([1]; OCI-Ly3, 24 h)	pIC50 ([2]; OCI-Ly3, 24 h)	pIC50 [3]	pIC50 [1, 4]	pIC50 [2, 4]
Cc1cnccc1-n1ncc(C(=O)Nc2cnc(-n3nccn3)c(Cl)c2)c1C(F)(F)F [Cpd 158, N-(5-chloro-6-(2H-1,2,3-triazol-2-yl)pyridin-3-yl)-1-(3-methylpyridin-4-yl)-5-(trifluoromethyl)-1H-pyrazole-4-carboxamide]	6.52	6.56	6.68	–	–
N#Cc1cc(NC(=O)c2cnn(-c3nc(Cl)ccc3Cl)c2C(F)(F)F)cnc1-n1nccn1 [Cpd 162, N-(5-cyano-6-(2H-1,2,3-triazol-2-yl)pyridin-3-yl)-1-(3,6-dichloropyridin-2-yl)-5-(trifluoromethyl)-1H-pyrazole-4-carboxamide]	–	–	6.52	6.74	6.60
N#Cc1cc(NC(=O)c2cnn(-c3c(F)cc(F)cc3F)c2C(F)(F)F)cnc1-n1nccn1 [Cpd 173, N-(5-cyano-6-(2H-1,2,3-triazol-2-yl)pyridin-3-yl)-5-(trifluoromethyl)-1-(2,4,6-trifluorophenyl)-1H-pyrazole-4-carboxamide]	–	–	6.82	7.02	6.89
Cc1cc(N)nc(-n2ncc(C(=O)Nc3cnc(-n4nccn4)c(C#N)c3)c2C(F)(F)F)c1 [Cpd 176, 1-(6-amino-4-methylpyridin-2-yl)-N-(5-cyano-6-(2H-1,2,3-triazol-2-yl)pyridin-3-yl)-5-(trifluoromethyl)-1H-pyrazole-4-carboxamide]	–	–	6.77	6.09	6.09
Cc1nc(-n2nccn2)c(C#N)cc1NC(=O)c1cnn(-c2ccc(C#N)c(N)n2)c1C(F)(F)F [Cpd 177, 1-(6-amino-5-cyanopyridin-2-yl)-N-(5-cyano-2-methyl-6-(2H-1,2,3-triazol-2-yl)pyridin-3-yl)-5-(trifluoromethyl)-1H-pyrazole-4-carboxamide]	–	–	6.71	5.56	5.13
Cc1nc(-n2nccn2)c(Cl)cc1NC(=O)c1cnn(-c2ccc(F)c(N)n2)c1C(F)(F)F [Cpd 179, 1-(6-amino-5-fluoropyridin-2-yl)-N-(5-chloro-2-methyl-6-(2H-1,2,3-triazol-2-yl)pyridin-3-yl)-5-(trifluoromethyl)-1H-pyrazole-4-carboxamide]	–	–	6.69	6.49	6.17
Nc1cccc(-n2ncc(C(=O)Nc3cnc(-n4nccn4)c(Cl)c3)c2C(F)(F)F)n1 [Cpd 180, 1-(6-aminopyridin-2-yl)-N-(5-chloro-6-(2H-1,2,3-triazol-2-yl)pyridin-3-yl)-5-(trifluoromethyl)-1H-pyrazole-4-carboxamide]	–	–	6.66	6.77	6.59
Cc1nc(-n2nccn2)c(Br)cc1NC(=O)c1cnn(-c2ccc(F)c(N)n2)c1C(F)(F)F [Cpd 181, 1-(6-amino-5-fluoropyridin-2-yl)-N-(5-bromo-2-methyl-6-(2H-1,2,3-triazol-2-yl)pyridin-3-yl)-5-(trifluoromethyl)-1H-pyrazole-4-carboxamide]	–	–	6.63	6.62	6.44
Cc1nc(-n2nccn2)c(C#N)cc1NC(=O)c1cnn(-c2ccc(F)c(N)n2)c1C(F)(F)F [Cpd 182, 1-(6-amino-5-fluoropyridin-2-yl)-N-(5-cyano-2-methyl-6-(2H-1,2,3-triazol-2-yl)pyridin-3-yl)-5-(trifluoromethyl)-1H-pyrazole-4-carboxamide]	–	–	6.63	6.41	6.31
Nc1ccc(Cl)c(-n2ncc(C(=O)Nc3cnc(-n4nccn4)c(Cl)c3)c2C(F)(F)F)n1 [Cpd 183, 1-(6-amino-3-chloropyridin-2-yl)-N-(5-chloro-6-(2H-1,2,3-triazol-2-yl)pyridin-3-yl)-5-(trifluoromethyl)-1H-pyrazole-4-carboxamide]	–	–	6.55	6.71	6.57
Cc1ccc(N)nc1-n1ncc(C(=O)Nc2cnc(-n3nccn3)c(Cl)c2)c1C(F)(F)F [Cpd 185, 1-(6-amino-3-methylpyridin-2-yl)-N-(5-chloro-6-(2H-1,2,3-triazol-2-yl)pyridin-3-yl)-5-(trifluoromethyl)-1H-pyrazole-4-carboxamide]	–	–	6.48	6.45	6.31
Cc1cc(-n2nccn2)c(Cl)cc1NC(=O)c1cnn(-c2ccc(F)c(N)n2)c1C(F)(F)F [Cpd 193, 1-(6-amino-5-fluoropyridin-2-yl)-N-(5-chloro-2-methyl-4-(2H-1,2,3-triazol-2-yl)phenyl)-5-(trifluoromethyl)-1H-pyrazole-4-carboxamide]	–	–	5.93	6.13	6.06

Second part, the compound after the results:

pIC50 ([1]; OCI-Ly3, 24 h)	pIC50 ([2]; OCI-Ly3, 24 h)	pIC50 [3]	pIC50 [1, 4]	pIC50 [2, 4]	Structure (SMILES)
–	–	7.30	7.11	7.18	Cc1cc(Cl)ccc1-n1ncc(C(=O)Nc2cnc(-n3nccn3)c(C#N)c2)c1C(F)(F)F [Cpd 166, 1-(4-chloro-2-methylphenyl)-N-(5-cyano-6-(2H-1,2,3-triazol-2-yl)pyridin-3-yl)-5-(trifluoromethyl)-1H-pyrazole-4-carboxamide]
–	–	7.16	7.39	7.27	Cc1c(F)cccc1-n1ncc(C(=O)Nc2cnc(-n3nccn3)c(C#N)c2)c1C(F)(F)F [Cpd 167, N-(5-cyano-6-(2H-1,2,3-triazol-2-yl)pyridin-3-yl)-1-(3-fluoro-2-methylphenyl)-5-(trifluoromethyl)-1H-pyrazole-4-carboxamide]
–	–	7.13	7.34	7.11	Cc1c(-n2ncc(C(=O)Nc3cnc(-n4nccn4)c(C#N)c3)c2C(F)(F)F)ccc(F)c1F [Cpd 168, N-(5-cyano-6-(2H-1,2,3-triazol-2-yl)pyridin-3-yl)-1-(3,4-difluoro-2-methylphenyl)-5-(trifluoromethyl)-1H-pyrazole-4-carboxamide]
–	–	7.04	7.12	6.98	N#Cc1ccc(-n2ncc(C(=O)Nc3cnc(-n4nccn4)c(C#N)c3)c2C(F)(F)F)cc1 [Cpd 169, N-(5-cyano-6-(2H-1,2,3-triazol-2-yl)pyridin-3-yl)-1-(4-cyanophenyl)-5-(trifluoromethyl)-1H-pyrazole-4-carboxamide]
–	–	6.99	6.42	6.38	Cc1cc(F)ccc1-n1ncc(C(=O)Nc2cc(C#N)c(-n3nccn3)nc2C)c1C(F)(F)F [Cpd 170, N-(5-cyano-2-methyl-6-(2H-1,2,3-triazol-2-yl)pyridin-3-yl)-1-(4-fluoro-2-methylphenyl)-5-(trifluoromethyl)-1H-pyrazole-4-carboxamide]
–	–	6.84	7.12	7.01	Cc1c(F)cccc1-n1ncc(C(=O)Nc2cnc(-n3nccn3)c(Cl)c2)c1C(F)(F)F [Cpd 171, N-(5-chloro-6-(2H-1,2,3-triazol-2-yl)pyridin-3-yl)-1-(3-fluoro-2-methylphenyl)-5-(trifluoromethyl)-1H-pyrazole-4-carboxamide]
–	–	6.82	6.75	6.70	Cc1cc(F)ccc1-n1ncc(C(=O)Nc2cc(Cl)c(-n3nccn3)nc2C)c1C(F)(F)F [Cpd 172, N-(5-chloro-2-methyl-6-(2H-1,2,3-triazol-2-yl)pyridin-3-yl)-1-(4-fluoro-2-methylphenyl)-5-(trifluoromethyl)-1H-pyrazole-4-carboxamide]
–	–	6.85	6.64	6.48	N#Cc1cc(NC(=O)c2cnn(-c3nc(N)ccc3Cl)c2C(F)(F)F)cnc1-n1nccn1 [Cpd 175, 1-(6-amino-3-chloropyridin-2-yl)-N-(5-cyano-6-(2H-1,2,3-triazol-2-yl)pyridin-3-yl)-5-(trifluoromethyl)-1H-pyrazole-4-carboxamide]

Source: patent publication US11040031B2, “Pyrazole derivatives as MALT1 inhibitors” (Janssen Pharmaceutica NV, priority 2018, dated 2021)
